Data on 1 compound can be found in patent publication US5906831A, “Controlled release composition forming a reversed micellar (L2) structure or a normal micellar (L1) structure” (GS Development AB, priority 1994, dated 1999).

The structures appear in SMILES notation.

The conditions of series [1]: diluted water solution; cited from earlier work.
For series [2] the following is noted: all compositions, in water; cited from earlier work.
Series [3] is described as follows: visual inspection of mixtures of monocaproin with polar solvents (miscibility). In kind it is physicochemical. The source says:
Many galenic formulations of drugs contain polar solvents.

Take `CCCCCC(=O)OCC(O)CO` (stereo not drawn) [monocaproin, glycerolmonohexanoate]: in series [1], the “critical micellar concentration (cmc)” value is recorded as 160 mM. The “phase behaviour of aqueous system” value in series [2] is given as “one single liquid phase at all compositions”. Also, the Appearance entry is recorded as “clear, low viscous” in series [3] (5% Ethanol / 5% Propylene Glycol (w/w), 90% monocaproin); “clear, low viscous” in series [3] (10% (w/w) Ethanol, 90% monocaproin); “clear, low viscous” in series [3] (10% (w/w) Propylene Glycol, 90% monocaproin); “clear, low viscous” in series [3] (90% (w/w) Ethanol, 10% monocaproin).
